In US8143374B2, “Polypeptide derivatives of parathyroid hormone (PTH)” (The General Hospital Corporation, priority 2006, dated 2012):
Where “and” joins values, the source holds several entries; their conditions need not be identical. Equal values may be shown once. Read-outs that look alike come from different tables or passages of the source. Where a SMILES comes first, the peptide text is derived from it. Where no end group is shown, it is not given here. [ ]: non-standard residue; d: D form. hArg = N=C(N)NCCCC[C@H](N)C(=O)O; Cha = N[C@@H](CC1CCCCC1)C(=O)O; Nle = CCCC[C@H](N)C(=O)O; Aib = CC(C)(N)C(=O)O

Columns and labels:
[1] = Circular dichroism spectroscopy, helical residues per peptide chain; assay type: physicochemical; conditions: calculated from [θ]222
Procedure: Circular Dichroism—CD spectra were obtained on a JASCO J-600 spectropolarimeter at 20° C. Four spectra were averaged and the data smoothed by the JASCO software. The instrument was calibrated with ammonium (+)-10-camphorsulfonate. Peptide concentrations were verified from the absorption at 280 nm, using an extinction coefficient of 5700 M^−1 for the single tryptophan. Data are expressed as the number of helical residues per peptide chain, as calculated from −[θ]222×30/28,000, where [θ]222 is the mean residue elipticity ([θ]) at 222 nm, as was described previously (Barbier, J. R., et al. (2005) J Biol Chem. 280:23771-23777).

[2] = molecular target: T1, PTHR-delNt (Homo sapiens, UniProt Q03431, DEL24-181); experiment: Competition binding in COS-7 cell membranes with 125I-[Aib1,3,M]PTH(1-15)NH2 tracer; conditions: for IC50: COS-7 membranes cotransfected with negative-dominant Gαs
T1 construct: expressed in transfected cells; host or cells: COS-7 cells, transient co-transfection; membranes prepared
T1 sequence (Q03431 with tags, fused parts or gaps DEL24-181): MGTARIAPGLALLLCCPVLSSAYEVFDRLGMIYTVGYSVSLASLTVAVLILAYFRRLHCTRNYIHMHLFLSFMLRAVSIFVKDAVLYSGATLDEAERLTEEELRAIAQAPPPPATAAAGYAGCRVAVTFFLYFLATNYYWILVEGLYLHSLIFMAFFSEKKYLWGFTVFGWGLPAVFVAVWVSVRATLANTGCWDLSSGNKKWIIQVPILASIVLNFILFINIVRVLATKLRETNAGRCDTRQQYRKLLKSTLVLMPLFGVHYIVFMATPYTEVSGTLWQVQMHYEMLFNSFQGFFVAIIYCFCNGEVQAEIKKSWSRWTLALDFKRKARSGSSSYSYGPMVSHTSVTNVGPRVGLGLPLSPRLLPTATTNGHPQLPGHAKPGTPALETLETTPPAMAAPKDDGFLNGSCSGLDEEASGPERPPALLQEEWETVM
Procedure: PTHR-delNt is a derivative of the human PTHR that is deleted for most (Ala^24-Arg^181) of the amino-terminal extracellular domain (Shimizu, M., et al. (2001) Endocrinology 142:3068-3074). This PTHR construct was expressed in COS-7 cells via transient DNA transfection. For cAMP assays, the cells were transfected in 24-well plates using 0.2 μg of plasmid DNA and 0.6 μl of Fugene-6 reagent (Roche Diagnostics, Indianapolis Ind.) per well, and assays were performed on the intact cells three to four days after transfection. For binding assays, cell membranes were prepared from transfected COS-7 cells. To increase the maximal binding of ^125I-[Aib^1,3,M]PTH(1-15)NH2 to PTHR-delNt in these membranes, the cells were cotransfected with a negative dominant mutant Gαs protein (Gαs^ND). This mutant Gαs subunit is thought to couple to cognate receptors, and thus stabilize high affinity receptor conformations, more efficiently than does wild-type Gαs, without increasing basal cAMP levels (Berlot, C. H. (2002) J Biol Chem 277:21080-5). A precursor of this mutant Gαs, Gαs(α3β5), was recently used to increase binding of ^125I-[Aib^1,3,M]PTH(1-15)NH2 to PTHR-delNt in COS-7 cell membranes (Dean, T., (2006) Mol Endocrinol 20:931-942). Gαs^ND, which contains the same five amino acid replacement of corresponding Gαi residues in the α3β5 loop as Gαs(α3β5), plus the point mutations of Gly^226 to Ala, which increases affinity for Gβ/γ, and Ala^366 to Ser, which decreases affinity for GDP, yields approximately two-fold higher levels of specific binding of ^125I-[Aib^1,3,M]PTH(1-15)NH2 than does Gαs(α3β5) (data not shown). For the current membrane preparations, COS-7 cells were co-transfected in six-well plates using 1 μg of each plasmid DNA encoding PTHR-delNt and Gαs^ND, and 6 μl of Fugene-6 reagent (Roche Diagnostics, Indianapolis Ind.) per well. Cells were harvested three days after transfection, and membranes were prepared as described (Dean, T., et al. (2006) Mol Endocrinol 20:931-942).
Receptor binding—Binding to the wild-type human PTHR in intact HKRK-B7 cells and ROS 17/2.8 cells was assessed using ^125I-PTH(1-34) as a tracer radioligand, as described (Shimizu, M., (2001) Endocrinology 142:3068-3074). In brief, the cells in 24-well plates (about 500,000 cells per well) were incubated in binding buffer containing radioligand (about 100,000 cpm per well) with or without unlabeled peptide ligand (3×10^−9 to 1×10^−5 M) for four hours at 15° C. The binding mixture was then removed by aspiration, the cells were rinsed three times with binding buffer, lysed in 1 M NaOH, and the entire lysate was counted for gamma-irradiation in a gamma counter. Binding to PTHR-delNt in COS-7 cell membranes was assessed in 96-well, vacuum filtration plates (Multiscreen-Durapore HV, […] membranes, Millipore Corp., Millford, Mass.) using ^125I-[Aib^1,3,M]PTH(1-15)NH2 as a tracer radioligand, as described (Dean, T., (2006) Mol Endocrinol 20:931-942). In brief, cell membranes (20 μg/well) were incubated in membrane binding buffer containing radioligand (30,000 cpm/well) with or without unlabeled peptide ligand (3×10^−9 to 1×10^−5 M) for 90 minutes at 21° C. The plates were then subject to rapid vacuum filtration, the filters were washed once with buffer, detached from the plate and counted for gamma-irradiation in a gamma counter. Non-specific binding was defined as the binding observed in the presence of 1×10^−6 M PTH(1-31)NH2 for HKRK-B7 and ROS 17/2.8 cells, and 1×10^−6 M [Aib^1,3,M]PTH(1-15)NH2 for PTHR-delNt. Specifically bound radioactivity was calculated as a percentage of the radioactivity specifically bound in the absence of competing ligand. […]

[3] = [Ala1,Arg19]hPTH(1-31)NH2 analogs
[4] = [Ala1,Arg19]hPTH(1-31)NH2 analogs, read-out: PTHR-delNT (COS-7) IC50
[5] = hPTH(1-31)NH2 analogs, read-out: PTHR-delNT (COS-7) IC50

Row | Molecule | CD helical residues [1, 3] | IC50 [2, 4] | IC50 [2, 5] | also measured
1 | CC[C@H](C)[C@H](NC(=O)[C@H](CCC(=O)O)NC(=O)[C@H](CO)NC(=O)[C@@H](NC(=O)[C@H](C)N)C(C)C)C(=O)N[C@@H](CCC(N)=O)C(=O)N[C@@H](CC(C)C)C(=O)N[C@@H](CCSC)C(=O)N[C@@H](Cc1c[nH]cn1)C(=O)N[C@@H](CC(N)=O)C(=O)N[C@@H](CC(C)C)C(=O)NCC(=O)N[C@@H](CCCCN)C(=O)N[C@@H](Cc1c[nH]cn1)C(=O)N[C@@H](CC(C)C)C(=O)N[C@@H](CC(N)=O)C(=O)N[C@@H](CO)C(=O)N[C@@H](CCSC)C(=O)N[C@@H](CC1CCCCC1)C(=O)N[C@@H](CCCNC(=N)N)C(=O)N[C@H](C(=O)N[C@@H](CCC(=O)O)C(=O)N[C@@H](Cc1c[nH]c2ccccc12)C(=O)N[C@@H](CC(C)C)C(=O)N[C@@H](CCCNC(=N)N)C(=O)N[C@@H](CCCCN)C(=O)N[C@@H](CCCCN)C(=O)N[C@@H](CC(C)C)C(=O)N[C@@H](CCC(N)=O)C(=O)N[C@@H](CC(=O)O)C(=O)N[C@H](C(N)=O)C(C)C)C(C)C [Arg^19→Cha] (H-AVSEIQLMHNLGKHLNSM[Cha]RVEWLRKKLQDV-NH2; N-terminus assumed) | 10 | 780 ± 83 nM |  | 
2 | CCCC[C@H](NC(=O)[C@H](CCC(=O)O)NC(=O)[C@H](CCSC)NC(=O)[C@H](CO)NC(=O)[C@H](CC(N)=O)NC(=O)[C@H](CC(C)C)NC(=O)[C@H](Cc1c[nH]cn1)NC(=O)[C@H](CCCCN)NC(=O)CNC(=O)[C@H](CC(C)C)NC(=O)[C@H](CC(N)=O)NC(=O)[C@H](Cc1c[nH]cn1)NC(=O)[C@H](CCSC)NC(=O)[C@H](CC(C)C)NC(=O)[C@H](CCC(N)=O)NC(=O)[C@@H](NC(=O)[C@H](CCC(=O)O)NC(=O)[C@H](CO)NC(=O)[C@@H](NC(=O)[C@@H](N)CO)C(C)C)[C@@H](C)CC)C(=O)N[C@H](C(=O)N[C@@H](CCC(=O)O)C(=O)N[C@@H](Cc1c[nH]c2ccccc12)C(=O)N[C@@H](CC(C)C)C(=O)N[C@@H](CCCNC(=N)N)C(=O)N[C@@H](CCCCN)C(=O)N[C@@H](CCCCN)C(=O)N[C@@H](CC(C)C)C(=O)N[C@@H](CCC(N)=O)C(=O)N[C@@H](CC(=O)O)C(=O)N[C@H](C(N)=O)C(C)C)C(C)C [Arg^20→Nle] (H-SVSEIQLMHNLGKHLNSME[Nle]VEWLRKKLQDV-NH2; N-terminus assumed) |  |  | 10700 nM | CD helical residues ([1]; hPTH(1-31)NH2 analogs): 12
3 | CC[C@H](C)[C@H](NC(=O)[C@H](CCC(=O)O)NC(=O)[C@H](CO)NC(=O)[C@@H](NC(=O)[C@H](C)N)C(C)C)C(=O)N[C@@H](CCC(N)=O)C(=O)N[C@@H](CC(C)C)C(=O)N[C@@H](CCSC)C(=O)N[C@@H](Cc1c[nH]cn1)C(=O)N[C@@H](CC(N)=O)C(=O)N[C@@H](CC(C)C)C(=O)NCC(=O)N[C@@H](CCCCN)C(=O)N[C@@H](Cc1c[nH]cn1)C(=O)N[C@@H](CC(C)C)C(=O)N[C@@H](CC(N)=O)C(=O)N[C@@H](CO)C(=O)N[C@@H](CCSC)C(=O)N[C@@H](CCCNC(=N)N)C(=O)N[C@@H](CCCNC(=N)N)C(=O)N[C@H](C(=O)N[C@@H](CCC(=O)O)C(=O)N[C@@H](Cc1c[nH]c2ccccc12)C(=O)N[C@@H](CC(C)C)C(=O)N[C@@H](CC1CCCCC1)C(=O)N[C@@H](CCCCN)C(=O)N[C@@H](CCCCN)C(=O)N[C@@H](CC(C)C)C(=O)N[C@@H](CCC(N)=O)C(=O)N[C@@H](CC(=O)O)C(=O)N[C@H](C(N)=O)C(C)C)C(C)C [Arg^25→Cha] (H-AVSEIQLMHNLGKHLNSMRRVEWL[Cha]KKLQDV-NH2; N-terminus assumed) | 9 |  |  | reduction (alteration) of binding affinity for PTHR-delNt relative to parent peptide ([2]; COS-7 membranes, versus the respective parent peptide): approximately five- to seven-fold; IC50 ([2]; PTHR-delNT (COS-7) IC50, [Ala1,Arg19]hPTH(1-31)NH2 analogs): 2710 ± 1310 nM

Continued, in another order:

Row | CD helical residues [1, 3] | IC50 [2, 4] | IC50 [2, 5] | Molecule | also measured
4 | 8 | 319 ± 57 nM |  | CC[C@H](C)[C@H](NC(=O)[C@H](CCC(=O)O)NC(=O)[C@H](CO)NC(=O)[C@@H](NC(=O)[C@H](C)N)C(C)C)C(=O)N[C@@H](CCC(N)=O)C(=O)N[C@@H](CC(C)C)C(=O)N[C@@H](CCSC)C(=O)N[C@@H](Cc1c[nH]cn1)C(=O)N[C@@H](CC(N)=O)C(=O)N[C@@H](CC(C)C)C(=O)NCC(=O)N[C@@H](CCCCN)C(=O)N[C@@H](Cc1c[nH]cn1)C(=O)N[C@@H](CC(C)C)C(=O)N[C@@H](CC(N)=O)C(=O)N[C@@H](CO)C(=O)N[C@@H](CCSC)C(=O)N[C@@H](CCCNC(=N)N)C(=O)N[C@@H](CCCNC(=N)N)C(=O)N[C@H](C(=O)N[C@@H](CCC(=O)O)C(=O)N[C@@H](Cc1c[nH]c2ccccc12)C(=O)N[C@@H](CC(C)C)C(=O)N[C@@H](CCCNC(=N)N)C(=O)N[C@@H](CCCCN)C(=O)N[C@@H](CCCCN)C(=O)N[C@@H](CC(C)C)C(=O)N[C@@H](CC1CCCCC1)C(=O)N[C@@H](CC(=O)O)C(=O)N[C@H](C(N)=O)C(C)C)C(C)C [Gln^29→Cha] (H-AVSEIQLMHNLGKHLNSMRRVEWLRKKL[Cha]DV-NH2; N-terminus assumed) | 
5 |  |  | 2.2 ± 0.5 nM | CCCC[C@H](NC(=O)[C@H](CC(C)C)NC(=O)[C@H](CCC(N)=O)NC(=O)[C@@H](NC(=O)[C@H](CCC(=O)O)NC(=O)C(C)(C)NC(=O)[C@@H](NC(=O)C(C)(C)N)C(C)C)[C@@H](C)CC)C(=O)N[C@@H](Cc1c[nH]cn1)C(=O)N[C@@H](CCC(N)=O)C(=O)N[C@@H](CCCCNC(=N)N)C(=O)N[C@@H](C)C(=O)N[C@@H](CCCCN)C(=O)N[C@@H](Cc1c[nH]c2ccccc12)C(=O)N[C@@H](Cc1ccc(O)cc1)C(N)=O [[Aib^1,3,M]PTH(1-15), [Aib^1,3,Nle^8,Gln^10,homoarginine^11,Ala^12,Trp^14,Tyr^15]PTH(1-15)NH2, reference compound] (H-[Aib]V[Aib]EIQL[Nle]HQ[hArg]AKWY-NH2; N-terminus assumed) | 
6 |  | 400 nM and 397 nM |  | AVSEIQLMHNLGKHLNSMRRVEWLRKKLQDV-NH2 [[Ala^1,Arg^19]PTH(1-31)NH2] | 
